Converted amounts (≈) assume the structure as drawn.
Tests used:
Assay type in all cases: functional
Candida albicans [1] = assay: Antifungal activity against Candida albicans after 24 hrs by two-fold broth microdilution assay
Candida tropicalis [2] = assay: Antifungal activity against Candida tropicalis after 24 hrs by two-fold broth microdilution assay
Aspergillus fumigatus [3] = assay: Antifungal activity against Aspergillus fumigatus after 24 hrs by two-fold broth microdilution assay
Candida albicans [4] = assay: Antifungal activity against Candida albicans ATCC 90023 after 24 hrs by two-fold broth microdilution assay; conditions: ATCC 90023, 24 h
Candida parapsilosis [5] = assay: Antifungal activity against Candida parapsilosis ATCC 22019 after 24 hrs by two-fold broth microdilution assay; conditions: Lodderomyces parapsilosis, ATCC 22019, 24 h
Candida albicans [6] = assay: Fungicidal activity against Candida albicans incubated for 24 hrs followed by plating onto tryptic soy agar medium and measured after 24 hrs by broth microdilution method
Candida tropicalis [7] = assay: Fungicidal activity against Candida tropicalis incubated for 24 hrs followed by plating onto tryptic soy agar medium and measured after 24 hrs by broth microdilution method
Candida parapsilosis [8] = assay: Fungicidal activity against Candida parapsilosis ATCC 22019 incubated for 24 hrs followed by plating onto tryptic soy agar medium and measured after 24 hrs by broth microdilution method; conditions: Lodderomyces parapsilosis, ATCC 22019, 24 h
Candida albicans [9] = assay: Ratio of MFC to MIC for Candida albicans
Candida tropicalis [10] = assay: Ratio of MFC to MIC for Candida tropicalis
Candida parapsilosis [11] = assay: Ratio of MFC to MIC for Candida parapsilosis ATCC 22019
Candida albicans [12] = assay: Synergistic antifungal activity against Candida albicans after 18 hrs in presence of fluconazole by checkerboard assay
Candida tropicalis [13] = assay: Synergistic antifungal activity against Candida tropicalis after 18 hrs in presence of fluconazole by checkerboard assay
Aspergillus fumigatus [14] = assay: Synergistic antifungal activity against Aspergillus fumigatus after 18 hrs in presence of fluconazole by checkerboard assay
Candida albicans [15] = assay: Synergistic antifungal activity against Candida albicans assessed as FIC index after 18 hrs in presence of fluconazole by checkerboard assay
Candida tropicalis [16] = assay: Synergistic antifungal activity against Candida tropicalis assessed as FIC index after 18 hrs in presence of fluconazole by checkerboard assay
Aspergillus fumigatus [17] = assay: Synergistic antifungal activity against Aspergillus fumigatus assessed as FIC index after 18 hrs in presence of fluconazole by checkerboard assay
Staphylococcus aureus [18] = assay: Antibacterial activity against Staphylococcus aureus after 24 hrs by micro broth dilution method
Staphylococcus aureus [19] = assay: Antibacterial activity against methicillin-resistant Staphylococcus aureus after 24 hrs by micro broth dilution method
Enterococcus faecalis = assay: Antibacterial activity against Enterococcus faecalis after 24 hrs by micro broth dilution method
Staphylococcus aureus [20] = assay: Antibacterial activity against Staphylococcus aureus ATCC 25923 after 24 hrs by micro broth dilution method; conditions: ATCC 25923, 24 h
Staphylococcus aureus [21] = assay: Antibacterial activity against Staphylococcus aureus ATCC 29213 after 24 hrs by micro broth dilution method; conditions: ATCC 29213, 24 h
Klebsiella pneumoniae = assay: Antibacterial activity against Klebsiella pneumoniae after 24 hrs by micro broth dilution method
Escherichia coli [22] = assay: Antibacterial activity against Escherichia coli after 24 hrs by micro broth dilution method
Acinetobacter baumannii = assay: Antibacterial activity against Acinetobacter baumannii after 24 hrs by micro broth dilution method
Pseudomonas aeruginosa [23] = assay: Antibacterial activity against Pseudomonas aeruginosa after 24 hrs by micro broth dilution method
Pseudomonas aeruginosa [24] = assay: Antibacterial activity against Pseudomonas aeruginosa ATCC 27853 after 24 hrs by micro broth dilution method; conditions: ATCC 27853, 24 h
Escherichia coli [25] = assay: Antibacterial activity against Escherichia coli ATCC 25922 after 24 hrs by micro broth dilution method; conditions: ATCC 25922, 24 h
Candida albicans [26] = assay: Antifungal activity against Candida albicans assessed as ratio of MIC after and before 10 serial passages

For `OC(Cn1cncn1)(Cn1c2ccccc2c2cc(Br)ccc21)c1ccc(F)cc1F` (centres undefined), the MIC (Candida albicans [1]) was 8 µg/mL (≈ 16.6 µM), the MIC (Candida tropicalis [2]) was 4 µg/mL (≈ 8.28 µM) and the MIC (Aspergillus fumigatus [3]) was 64 µg/mL (≈ 132 µM). For the same compound, the MIC (Candida albicans [4]) was 32 µg/mL (≈ 66.2 µM), the MIC (Candida parapsilosis [5]) was 8 µg/mL (≈ 16.6 µM) and the MFC (Candida albicans [6]) was 16 µg/mL (≈ 33.1 µM). The MFC (Candida tropicalis [7]) was 32 µg/mL (≈ 66.2 µM), the MFC (Candida parapsilosis [8]) was 8 µg/mL (≈ 16.6 µM) and the Ratio (Candida albicans [9]) was 2. For the same compound, the Ratio (Candida tropicalis [10]) was 8, the Ratio (Candida parapsilosis [11]) was 1 and the MIC (Candida albicans [12]) was 2 µg/mL. For the same compound, the MIC (Candida tropicalis [13]) was 4 µg/mL, the MIC (Aspergillus fumigatus [14]) was 16 µg/mL and the “fractional inhibitory concentration index (FICI)” value (Candida albicans [15]) was 0.75. The “fractional inhibitory concentration index (FICI)” value (Candida tropicalis [16]) was 1.5, the “fractional inhibitory concentration index (FICI)” value (Aspergillus fumigatus [17]) was 0.32 and the MIC (Staphylococcus aureus [18]) was 32 µg/mL (≈ 66.2 µM). The MIC (Staphylococcus aureus [19]) was 16 µg/mL (≈ 33.1 µM), the MIC (Enterococcus faecalis) was 32 µg/mL (≈ 66.2 µM) and the MIC (Staphylococcus aureus [20]) was 16 µg/mL (≈ 33.1 µM). It also gave an MIC (Staphylococcus aureus [21]) of 16 µg/mL (≈ 33.1 µM), an MIC (Klebsiella pneumoniae) of 128 µg/mL (≈ 265 µM) and an MIC (Escherichia coli [22]) of 32 µg/mL (≈ 66.2 µM). It also gave an MIC (Acinetobacter baumannii) of 64 µg/mL (≈ 132 µM), an MIC (Pseudomonas aeruginosa [23]) of 64 µg/mL (≈ 132 µM) and an MIC (Pseudomonas aeruginosa [24]) of 128 µg/mL (≈ 265 µM). The MIC (Escherichia coli [25]) was 32 µg/mL (≈ 66.2 µM).

Work on `Cc1ccc(C(O)(Cn2cncn2)Cn2c3ccc(Br)cc3c3cc(Br)ccc32)cc1` (centres undefined) yielded an MIC (Candida albicans [1]) of 64 µg/mL (≈ 118 µM), an MIC (Candida tropicalis [2]) of 32 µg/mL (≈ 59.2 µM) and an MIC (Aspergillus fumigatus [3]) of 64 µg/mL (≈ 118 µM). It also gave an MIC (Candida albicans [4]) of 128 µg/mL (≈ 237 µM), an MIC (Candida parapsilosis [5]) of 32 µg/mL (≈ 59.2 µM) and an MIC (Staphylococcus aureus [18]) of 256 µg/mL (≈ 474 µM). It also gave an MIC (Staphylococcus aureus [19]) of 128 µg/mL (≈ 237 µM), an MIC (Enterococcus faecalis) of 64 µg/mL (≈ 118 µM) and an MIC (Staphylococcus aureus [20]) of 128 µg/mL (≈ 237 µM). For the same compound, the MIC (Staphylococcus aureus [21]) was 256 µg/mL (≈ 474 µM), the MIC (Klebsiella pneumoniae) was 256 µg/mL (≈ 474 µM) and the MIC (Escherichia coli [22]) was 256 µg/mL (≈ 474 µM). For the same compound, the MIC (Acinetobacter baumannii) was 256 µg/mL (≈ 474 µM), the MIC (Pseudomonas aeruginosa [23]) was 256 µg/mL (≈ 474 µM) and the MIC (Pseudomonas aeruginosa [24]) was 64 µg/mL (≈ 118 µM). It also gave an MIC (Escherichia coli [25]) of 16 µg/mL (≈ 29.6 µM).

`OC(Cn1cncn1)(Cn1c2ccc(Br)cc2c2cc(Br)ccc21)c1ccc(F)cc1` (centres undefined) was tested, and the MIC (Candida albicans [1]) was 8 µg/mL (≈ 14.7 µM), the MIC (Candida tropicalis [2]) was 16 µg/mL (≈ 29.4 µM) and the MIC (Aspergillus fumigatus [3]) was 128 µg/mL (≈ 235 µM). It also gave an MIC (Candida albicans [4]) of 64 µg/mL (≈ 118 µM), an MIC (Candida parapsilosis [5]) of 8 µg/mL (≈ 14.7 µM) and an MFC (Candida albicans [6]) of 32 µg/mL (≈ 58.8 µM). The MFC (Candida tropicalis [7]) was 32 µg/mL (≈ 58.8 µM), the MFC (Candida parapsilosis [8]) was 16 µg/mL (≈ 29.4 µM) and the Ratio (Candida albicans [9]) was 4. It also gave a Ratio (Candida tropicalis [10]) of 2, a Ratio (Candida parapsilosis [11]) of 2 and an MIC (Staphylococcus aureus [18]) of 64 µg/mL (≈ 118 µM). For the same compound, the MIC (Staphylococcus aureus [19]) was 64 µg/mL (≈ 118 µM), the MIC (Enterococcus faecalis) was 64 µg/mL (≈ 118 µM) and the MIC (Staphylococcus aureus [20]) was 32 µg/mL (≈ 58.8 µM). For the same compound, the MIC (Staphylococcus aureus [21]) was 16 µg/mL (≈ 29.4 µM), the MIC (Klebsiella pneumoniae) was 256 µg/mL (≈ 470 µM) and the MIC (Escherichia coli [22]) was 64 µg/mL (≈ 118 µM). It also gave an MIC (Acinetobacter baumannii) of 256 µg/mL (≈ 470 µM), an MIC (Pseudomonas aeruginosa [23]) of 128 µg/mL (≈ 235 µM) and an MIC (Pseudomonas aeruginosa [24]) of 64 µg/mL (≈ 118 µM). The MIC (Escherichia coli [25]) was 16 µg/mL (≈ 29.4 µM).

`CC(C)(C)c1ccc2c(c1)c1cc(C(C)(C)C)ccc1n2CC(O)(Cn1cncn1)c1ccc(F)cc1F` (centres undefined) was tested, and the MIC (Candida albicans [1]) was 64 µg/mL (≈ 124 µM), the MIC (Candida tropicalis [2]) was 64 µg/mL (≈ 124 µM) and the MIC (Aspergillus fumigatus [3]) was 256 µg/mL (≈ 496 µM). It also gave an MIC (Candida albicans [4]) of 128 µg/mL (≈ 248 µM), an MIC (Candida parapsilosis [5]) of 64 µg/mL (≈ 124 µM) and an MIC (Staphylococcus aureus [18]) of 256 µg/mL (≈ 496 µM). The MIC (Staphylococcus aureus [19]) was 64 µg/mL (≈ 124 µM), the MIC (Enterococcus faecalis) was 128 µg/mL (≈ 248 µM) and the MIC (Staphylococcus aureus [20]) was 32 µg/mL (≈ 61.9 µM). For the same compound, the MIC (Staphylococcus aureus [21]) was 256 µg/mL (≈ 496 µM), the MIC (Klebsiella pneumoniae) was 32 µg/mL (≈ 61.9 µM) and the MIC (Escherichia coli [22]) was 128 µg/mL (≈ 248 µM). The MIC (Acinetobacter baumannii) was 256 µg/mL (≈ 496 µM), the MIC (Pseudomonas aeruginosa [23]) was 128 µg/mL (≈ 248 µM) and the MIC (Pseudomonas aeruginosa [24]) was 64 µg/mL (≈ 124 µM). The MIC (Escherichia coli [25]) was 128 µg/mL (≈ 248 µM).

`OC(Cn1cncn1)(Cn1cncn1)c1ccc(F)cc1F` [FLUCONAZOLE] was tested, and the MIC (Candida albicans [1]) was 4 µg/mL (≈ 13.1 µM), the MIC (Candida tropicalis [2]) was 8 µg/mL (≈ 26.1 µM) and the MIC (Aspergillus fumigatus [3]) was 256 µg/mL (≈ 836 µM). The MIC (Candida albicans [4]) was 2 µg/mL (≈ 6.53 µM), the MIC (Candida parapsilosis [5]) was 4 µg/mL (≈ 13.1 µM) and the Ratio (Candida albicans [26]) was 8.

For `OC(Cn1cncn1)(Cn1c2ccc(Br)cc2c2cc(Br)ccc21)c1ccc(Cl)cc1` (centres undefined), the MIC (Candida albicans [1]) was 8 µg/mL (≈ 14.3 µM), the MIC (Candida tropicalis [2]) was 32 µg/mL (≈ 57.1 µM) and the MIC (Aspergillus fumigatus [3]) was 64 µg/mL (≈ 114 µM). For the same compound, the MIC (Candida albicans [4]) was 64 µg/mL (≈ 114 µM), the MIC (Candida parapsilosis [5]) was 32 µg/mL (≈ 57.1 µM) and the MIC (Staphylococcus aureus [18]) was 32 µg/mL (≈ 57.1 µM). For the same compound, the MIC (Staphylococcus aureus [19]) was 16 µg/mL (≈ 28.5 µM), the MIC (Enterococcus faecalis) was 16 µg/mL (≈ 28.5 µM) and the MIC (Staphylococcus aureus [20]) was 32 µg/mL (≈ 57.1 µM). For the same compound, the MIC (Staphylococcus aureus [21]) was 16 µg/mL (≈ 28.5 µM), the MIC (Klebsiella pneumoniae) was 256 µg/mL (≈ 457 µM) and the MIC (Escherichia coli [22]) was 128 µg/mL (≈ 228 µM). It also gave an MIC (Acinetobacter baumannii) of 256 µg/mL (≈ 457 µM), an MIC (Pseudomonas aeruginosa [23]) of 256 µg/mL (≈ 457 µM) and an MIC (Pseudomonas aeruginosa [24]) of 16 µg/mL (≈ 28.5 µM). It also gave an MIC (Escherichia coli [25]) of 16 µg/mL (≈ 28.5 µM).

Source: ChEMBL document CHEMBL4270534, “Novel carbazole-triazole conjugates as DNA-targeting membrane active potentiators against clinical isolated fungi” (Eur J Med Chem, 2018)
